Experimental data as given in patent US8158621B2, “Methods of treating or preventing autoimmune diseases with 2,4-pyrimidinediamine compounds” (Rigel Pharmaceuticals, Inc., priority 2002, dated 2012).
Where two headings read alike, the source gives them in different places.

System: Human Jurkat T-cells (clone N)
Assay: Jurkat T-cell activation (anti-TCR, CD69 upregulation)
Format: cell-based
Procedure: The screening process took place over three days.
On the first day of the screen, cultured cells were spun down on a centrifuge (1000 rpm, 5 minutes) and resuspended at 3.0×10^5 cells/ml in RPMI+5% FBS. On the second day of the screen, cells were spun down at 1000 rpm for 5 minutes and resuspended in RPMI+5% FBS at 1.3×10^5 cells/ml. 85 μl of this cell suspension were added to the wells of U-bottom 96 well plates (Corning) 85 μl of compound or diluted RPMI+5% FBS (as a control) only was added to each well and incubated at 37° C. for 1 hour. The cells were then stimulated with anti-TCR (C305) at: 500 ng/ml by adding a 8× solution in 25 μl to the plated cells. The cells were then incubated at 37° C. for 20 hrs.
On the third day of the screen, the plates were spun at 2500 RPM for 1 minute on a Beckman GS-6R centrifuge, and the medium was then removed. 50 μl staining solution (1:100 dilution of anti-CD69-APC antibody (Becton Dickenson) in PBS+2% FBS) was then added to each well, followed by incubation of the plates 4 degrees for 20 minutes in the dark. 150 μl of wash buffer (PBS+2% FBS) was then added to each well, and the plates were spun at 3000 RPM for 1 minute. The supernatant was again removed, and the pellet was resuspended by vortexing gently. 75 μl of PBS+2% FBS +Cytofix (1:4 dilution) was then added, the plates gently vortexed and wrap in aluminum foil. Cells from the plates were read using a flow cytometer coupled to an automated liquid handling system.
Varied concentrations of compound were compared to solvent only to determine the inhibition of T-cell activation IC50 of each compound.

Structure (SMILES) | IC50 (Homo sapiens, Jurkat) [µM] | IC50 [µM]
Oc1cccc(Nc2ncc(-c3ccc4c(c3)OCO4)c(Nc3cccc(O)c3)n2)c1 [Compound R925788] | 16.9 | 
Oc1ccc(CCNc2ccnc(NCCc3ccc(O)cc3)n2)cc1 [Compound R925790] | 17 | 
Oc1ccc(CCNc2ncc(F)c(NCCc3ccc(O)cc3)n2)cc1 [Compound R925791] | > 10 | 
Oc1ccc(CCNc2ncc(Br)c(NCCc3ccc(O)cc3)n2)cc1 [Compound R925792] | 8.65 | 
Fc1cnc(Nc2ccc3c(c2)OCCO3)nc1NC1CCCCC1 [Compound R925794] | > 10 | 
O=C(O)C1CCC(Nc2nc(Nc3ccc4c(c3)OCCO4)ncc2F)CC1 (stereo not shown) [Compound R925795] | > 10 | 
Brc1cnc(Nc2ccccc2-c2ccccc2)nc1Nc1ccccc1-c1ccccc1 [Compound R925798] | > 10 | 
COc1ccc(-c2ccccc2)cc1Nc1ncc(Br)c(Nc2cc(-c3ccccc3)ccc2OC)n1 [Compound R925799] | > 10 | 
COc1cc(-c2ccccc2)c(C)cc1Nc1ncc(Br)c(Nc2cc(C)c(-c3ccccc3)cc2OC)n1 [Compound R925801] | > 10 | 
COc1ccc(Nc2ncc(Br)c(Nc3ccc(OC)c(-c4ccccc4)c3)n2)cc1-c1ccccc1 [Compound R925802] | > 10 | 
Brc1cnc(Nc2cccc(-c3ccccc3)c2)nc1Nc1cccc(-c2ccccc2)c1 [Compound R925803] | > 10 | 
c1ccc(-c2ccccc2Nc2ccnc(Nc3ccccc3-c3ccccc3)n2)cc1 [Compound R925804] | > 10 | 
COc1ccc(-c2ccccc2)cc1Nc1ccnc(Nc2cc(-c3ccccc3)ccc2OC)n1 [Compound R925805] | > 10 | 
COc1ccc(Nc2ccnc(Nc3ccc(OC)c(-c4ccccc4)c3)n2)cc1-c1ccccc1 [Compound R925806] | > 10 | 
Cc1ccc(-c2ccccc2)cc1Nc1ccnc(Nc2cc(-c3ccccc3)ccc2C)n1 [Compound R925807] | > 10 | 
COc1cc(-c2ccccc2)c(C)cc1Nc1ccnc(Nc2cc(C)c(-c3ccccc3)cc2OC)n1 [Compound R925808] | > 10 | 
CCOC(=O)COc1ccc(Nc2ncc(-c3nn[nH]n3)c(Nc3ccc(OCC(=O)OCC)cc3)n2)cc1 [Compound R925810] |  | 21.3
c1ccc(-c2cc(Nc3ccc4c(c3)OCCO4)nc(Nc3ccc4c(c3)OCCO4)n2)cc1 [Compound R925811] | > 10 | 
Oc1cccc(Nc2cc(-c3ccccc3)nc(Nc3cccc(O)c3)n2)c1 [Compound R925812] | > 10 | 
CCOC(=O)C(Nc1ncc(C#N)c(NC(C(=O)OCC)C(C)C)n1)C(C)C (stereo not shown) [Compound R925814] | 14.2 | 

Structure (SMILES) | IC50 (Homo sapiens, Jurkat) [µM] | IC50 [µM]
COC(=O)C(CC(C)C)Nc1ncc(C#N)c(NC(CC(C)C)C(=O)OC)n1 (stereo not shown) [Compound R925815] | > 10 | 
Oc1ccc(-c2cnc(Nc3ccc4c(c3)OCCO4)nc2Nc2ccc3c(c2)OCCO3)cc1 [Compound R925816] | 4.66 | 
C=CCNc1ncc(Br)c(Nc2cccc(O)c2)n1 [Compound R925822] | > 10 | 
C=CCNc1ncc(F)c(Nc2ccc3c(c2)OCCO3)n1 [Compound R925823] | 9.33 | 
CCOC(=O)c1cnc(Nc2ccc(OCC(=O)NCC3CC3)cc2)nc1Nc1cccc(O)c1 [Compound R925838] |  | > 10
O=C(COc1ccc(Nc2nc(Nc3cccc(O)c3)ncc2Br)cc1)NCC1CC1 [Compound R925842] |  | > 10
N#Cc1cnc(Nc2cccc(O)c2)nc1Nc1ccc(OCC(=O)NCC2CC2)cc1 [Compound R925845] |  | 6.97
N#Cc1cnc(Nc2ccc(OCC(=O)NCC(O)CO)cc2)nc1Nc1cccc(O)c1 (stereo not shown) [Compound R925846] |  | > 10
CCOC(=O)c1nc(Nc2cccc(O)c2)nc(Nc2cccc(O)c2)c1[N+](=O)[O-] [Compound R925849] | 8.02 | 
CCOC(=O)c1nc(Nc2ccc3c(c2)OCCO3)nc(Nc2ccc3c(c2)OCCO3)c1[N+](=O)[O-] [Compound R925852] | > 10 | 
CCCNC(=O)COc1ccc(Nc2ncc(C#N)c(Nc3ccc(OCC(=O)NCCC)cc3)n2)cc1 [Compound R925853] |  | > 10
N#Cc1cnc(Nc2ccc(OCC(=O)N3CCCCC3)cc2)nc1Nc1ccc(OCC(=O)N2CCCCC2)cc1 [Compound R925855] |  | > 10
CCOC(=O)c1nc(Nc2cccc(O)c2)nc(Nc2cccc(O)c2)c1N [Compound R925856] | > 10 | 
CCOC(=O)c1nc(Nc2ccc3c(c2)OCCO3)nc(Nc2ccc3c(c2)OCCO3)c1N [Compound R925857] | > 10 | 
CCOC(=O)CNc1nc(Nc2ccc(OCC(=O)OCC)cc2)nc(C(=O)OCC)c1[N+](=O)[O-] [Compound R925858] |  | > 10
CCCCNC(=O)COc1ccc(Nc2ncc(C#N)c(Nc3ccc(OCC(=O)NCCCC)cc3)n2)cc1 [Compound R925860] |  | 41.9
CC(C)NC(=O)COc1ccc(Nc2ncc(C#N)c(Nc3ccc(OCC(=O)NC(C)C)cc3)n2)cc1 [Compound R925861] |  | 20.2
CCOC(=O)COc1ccc(Nc2ncc(C(F)(F)F)c(Nc3ccc(OCC(=O)OCC)cc3)n2)cc1 [Compound R925862] |  | > 10
Oc1cccc(Nc2ncc(C(F)(F)F)c(Nc3cccc(O)c3)n2)c1 [Compound R925863] | 2.96 | 
CCOC(=O)CNc1nc(NCC(=O)OCC)c([N+](=O)[O-])c(C(=O)OCC)n1 [Compound R925864] | 19.1 | 

Structure (SMILES) | IC50 (Homo sapiens, Jurkat) [µM] | IC50 [µM]
CCOC(=O)CNc1nc(NCC(=O)OCC)c(N)c(C(=O)OCC)n1 [Compound R925865] | > 10 | 
Fc1cnc(Nc2ccc(C(F)(F)F)cc2)nc1Nc1ccc(C(F)(F)F)cc1 [Compound R926016] | > 10 | 
COc1ccc(Nc2ncc(F)c(Nc3ccc(OC)cc3)n2)cc1 [Compound R926017] | 20.8 | 
Fc1cc(Nc2ncc(F)c(Nc3ccc(C(F)(F)F)c(F)c3)n2)ccc1C(F)(F)F [Compound R926018] | > 10 | 
Fc1cnc(Nc2cccc(OC(F)(F)F)c2)nc1Nc1cccc(OC(F)(F)F)c1 [Compound R926038] | > 10 | 
Fc1cnc(Nc2ccc(Cl)c(C(F)(F)F)c2)nc1Nc1ccc(Cl)c(C(F)(F)F)c1 [Compound R926039] | > 10 | 
CCOc1ccc(Nc2cc(C(=O)OC)nc(Nc3ccc(OCC)cc3)n2)cc1 [Compound R926058] | > 10 | 
CCOc1cccc(Nc2ncc(F)c(Nc3cccc(OCC)c3)n2)c1 [Compound R926064] | > 10 | 
COc1cccc(Nc2ncc(F)c(Nc3cccc(OC)c3)n2)c1 [Compound R926065] | 6.73 | 
CCOc1ccc(Nc2ncc(C)c(Nc3ccc(OCC)cc3)n2)cc1 [Compound R926068] | 11.4 | 
CCOc1ccc(Nc2ccnc(Nc3ccc(OCC)cc3)n2)cc1 [Compound R926069] | 4.31 | 
CCOc1ccc(Nc2cc(Cl)nc(Nc3ccc(OCC)cc3)n2)cc1 [Compound R926072] | > 10 | 
CN(C)c1ccc(Nc2ncc(F)c(Nc3ccc(N(C)C)cc3)n2)cc1 [Compound R926086] | 6.63 | 
Fc1cnc(Nc2ccc(N3CCOCC3)cc2)nc1Nc1ccc(N2CCOCC2)cc1 [Compound R926114] |  | 9.91
CCOc1ccc(Nc2ncc(F)c(Nc3ccc(OC)c(OC)c3)n2)cc1 [Compound R926145] | 17.7 | 
COc1ccc(Nc2nc(Nc3cccc(O)c3)ncc2F)cc1OC [Compound R926147] | > 10 | 
Fc1cnc(Nc2ccc(Cl)cc2)nc1Nc1ccc(Cl)cc1 [Compound R926206] | > 10 | 
Fc1cnc(Nc2cccc(Cl)c2)nc1Nc1cccc(Cl)c1 [Compound R926209] | > 10 | 
